{
  "source": "patent US20130244879A1",
  "about": "“USE OF LIPO-CHITOOLIGOSACCHARIDES TO INITIATE EARLY FLOWERING AND FRUIT DEVELOPMENT IN PLANTS AND RELATED METHODS AND COMPOSITIONS” (NOVOZYMES BIOLOGICALS HOLDING A/S, priority 2003, published 2013)",
  "key": {"[1]": {"test_system": "Cobra tomatoes", "test": "Trial 2: LCO dose and timing on greenhouse tomato (Cobra)", "assay_type": "in vivo", "description": "The Cobra variety was used to re-examine optimal doses of LCO. The concentrations tested were 50 ng and 75 ng LCO per plant, applied once (2 weeks after transplanting) and twice (4 weeks after transplanting). The sample number was increased to 20 plants."}, "[2]": {"test_system": "Marigold", "test": "Experiment 5: foliar application of LCO to bedding plants (Marigold)", "assay_type": "in vivo", "from_the_text": "This is a growth room study. Seeds of garden plant species were selected on the basis of seed-purchase popularity (Norseco, Montreal), grown in trays of Pro-Mix (NB. trademarked name) Seeding Medium, and at some size were transplanted into trays of 36 and 32 wells containing the same medium. Growth proceeded under lights in the growth room. Some 2 weeks before expected flowering, 16 young plants were sprayed with each of various levels of LCO leaving control plants untreated. The results are presented in Table 5A on bud formation and where possible opened flowers."}, "[3]": {"conditions": "50 ml/16 plants of 3 × 10^−8M LCO"}},
  "data": [
    {"substance": "Lipo-chitooligosaccharides [LCO]", "values": [
      {"measurement": "advance in flowering (attaining same flower number as control)", "setting": "[1]; 50 ng treatment", "value": "~3", "unit": "days"},
      {"measurement": "advance of equivalent fruit numbers over control", "setting": "[1]; 50 ng/plant application twice", "value": 2, "unit": "weeks"},
      {"measurement": "Flower Number/Plant", "setting": "[1]; LCO 50 ng once, April 4", "value": 32.45},
      {"measurement": "Fruit Number/Plant", "setting": "[1]; LCO 50 ng once, April 4", "value": 1.3, "unit": "b"},
      {"measurement": "Flower Number/Plant", "setting": "[1]; LCO 50 ng once, Feb. 28", "value": 0.0, "unit": "b"},
      {"measurement": "Flower Number/Plant", "setting": "[1]; LCO 50 ng once, Mar. 7", "value": 2.5, "unit": "ab"},
      {"measurement": "Flower Number/Plant", "setting": "[1]; LCO 50 ng once, Mar. 14", "value": 7.4, "unit": "ab"},
      {"measurement": "Fruit Number/Plant", "setting": "[1]; LCO 50 ng once, Mar. 14", "value": 0.05, "unit": "b"},
      {"measurement": "Flower Number/Plant", "setting": "[1]; LCO 50 ng once, Mar. 21", "value": 14.55},
      {"measurement": "Fruit Number/Plant", "setting": "[1]; LCO 50 ng once, Mar. 21", "value": 0.25},
      {"measurement": "Flower Number/Plant", "setting": "[1]; LCO 50 ng once, Mar. 28", "value": 23.95},
      {"measurement": "Fruit Number/Plant", "setting": "[1]; LCO 50 ng once, Mar. 28", "value": 0.525, "unit": "c"},
      {"measurement": "Flower Number/Plant", "setting": "[1]; LCO 50 ng twice, April 4", "value": 32.2},
      {"measurement": "Fruit Number/Plant", "setting": "[1]; LCO 50 ng twice, April 4", "value": 2.5, "unit": "a"},
      {"measurement": "Flower Number/Plant", "setting": "[1]; LCO 50 ng twice, Feb. 28", "value": 0.2, "unit": "a"},
      {"measurement": "Flower Number/Plant", "setting": "[1]; LCO 50 ng twice, Mar. 7", "value": 3.2, "unit": "a"},
      {"measurement": "Flower Number/Plant", "setting": "[1]; LCO 50 ng twice, Mar. 14", "value": 8.4, "unit": "a"},
      {"measurement": "Fruit Number/Plant", "setting": "[1]; LCO 50 ng twice, Mar. 14", "value": 0.75, "unit": "a"},
      {"measurement": "Flower Number/Plant", "setting": "[1]; LCO 50 ng twice, Mar. 21", "value": 16.0},
      {"measurement": "Fruit Number/Plant", "setting": "[1]; LCO 50 ng twice, Mar. 21", "value": 1.8, "unit": "a"},
      {"measurement": "Flower Number/Plant", "setting": "[1]; LCO 50 ng twice, Mar. 28", "value": 25.15},
      {"measurement": "Fruit Number/Plant", "setting": "[1]; LCO 50 ng twice, Mar. 28", "value": 2.025, "unit": "a"},
      {"measurement": "Flower Number/Plant", "setting": "[1]; LCO 75 ng once, April 4", "value": 28.0},
      {"measurement": "Fruit Number/Plant", "setting": "[1]; LCO 75 ng once, April 4", "value": 1.45, "unit": "b"},
      {"measurement": "Flower Number/Plant", "setting": "[1]; LCO 75 ng once, Feb. 28", "value": 0.0, "unit": "b"},
      {"measurement": "Flower Number/Plant", "setting": "[1]; LCO 75 ng once, Mar. 7", "value": 2.85, "unit": "ab"},
      {"measurement": "Flower Number/Plant", "setting": "[1]; LCO 75 ng once, Mar. 14", "value": 7.35, "unit": "ab"},
      {"measurement": "Fruit Number/Plant", "setting": "[1]; LCO 75 ng once, Mar. 14", "value": 0.45, "unit": "ab"},
      {"measurement": "Flower Number/Plant", "setting": "[1]; LCO 75 ng once, Mar. 21", "value": 14.2},
      {"measurement": "Fruit Number/Plant", "setting": "[1]; LCO 75 ng once, Mar. 21", "value": 0.9, "unit": "bc"},
      {"measurement": "Flower Number/Plant", "setting": "[1]; LCO 75 ng once, Mar. 28", "value": 21.4},
      {"measurement": "Fruit Number/Plant", "setting": "[1]; LCO 75 ng once, Mar. 28", "value": 1.15, "unit": "bc"},
      {"measurement": "Flower Number/Plant", "setting": "[1]; LCO 75 ng twice, April 4", "value": 31.0},
      {"measurement": "Fruit Number/Plant", "setting": "[1]; LCO 75 ng twice, April 4", "value": 1.9, "unit": "ab"},
      {"measurement": "Flower Number/Plant", "setting": "[1]; LCO 75 ng twice, Feb. 28", "value": 0.0, "unit": "b"},
      {"measurement": "Flower Number/Plant", "setting": "[1]; LCO 75 ng twice, Mar. 7", "value": 3.25, "unit": "a"},
      {"measurement": "Flower Number/Plant", "setting": "[1]; LCO 75 ng twice, Mar. 14", "value": 7.35, "unit": "ab"},
      {"measurement": "Fruit Number/Plant", "setting": "[1]; LCO 75 ng twice, Mar. 14", "value": 0.6, "unit": "ab"},
      {"measurement": "Flower Number/Plant", "setting": "[1]; LCO 75 ng twice, Mar. 21", "value": 15.4},
      {"measurement": "Fruit Number/Plant", "setting": "[1]; LCO 75 ng twice, Mar. 21", "value": 1.0, "unit": "b"},
      {"measurement": "Flower Number/Plant", "setting": "[1]; LCO 75 ng twice, Mar. 28", "value": 23.35},
      {"measurement": "Fruit Number/Plant", "setting": "[1]; LCO 75 ng twice, Mar. 28", "value": 1.325, "unit": "ab"},
      {"measurement": "plants with 4 flower buds per plant", "setting": "[2]; 50 ng treatment", "value": 2},
      {"measurement": "Total Number of Marigold buds", "setting": "[2]; 20 ml/16 plants of 10^−7M LCO", "value": 26},
      {"measurement": "Total Number of Marigold flower", "setting": "[2]; 20 ml/16 plants of 10^−7M LCO", "value": 0},
      {"measurement": "Total Number of Marigold buds", "setting": "[2]; 20 ml/16 plants of 10^−8M LCO", "value": 25},
      {"measurement": "Total Number of Marigold flower", "setting": "[2]; 20 ml/16 plants of 10^−8M LCO", "value": 2},
      {"measurement": "Total Number of Marigold buds", "setting": "[2]; 20 ml/16 plants of 10^−9M LCO", "value": 24},
      {"measurement": "Total Number of Marigold flower", "setting": "[2]; 20 ml/16 plants of 10^−9M LCO", "value": 1},
      {"measurement": "Total Number of Marigold buds", "setting": "[2]; [3]", "value": 34},
      {"measurement": "Total Number of Marigold flower", "setting": "[2]; [3]", "value": 3}
    ]}
  ]
}
